Data reported in ChEMBL document CHEMBL1201862, “PubChem BioAssay data set” (2004).
The source made the active and inactive calls.

How the values were obtained:
[1] = target: T1, Mannose-6-phosphate isomerase (Homo sapiens, UniProt P34949); assay: PMI enzyme inhibitors, confirmation, biochemical, fluorescence intensity (AID 1535)
T1 sequence (P34949 whole entry): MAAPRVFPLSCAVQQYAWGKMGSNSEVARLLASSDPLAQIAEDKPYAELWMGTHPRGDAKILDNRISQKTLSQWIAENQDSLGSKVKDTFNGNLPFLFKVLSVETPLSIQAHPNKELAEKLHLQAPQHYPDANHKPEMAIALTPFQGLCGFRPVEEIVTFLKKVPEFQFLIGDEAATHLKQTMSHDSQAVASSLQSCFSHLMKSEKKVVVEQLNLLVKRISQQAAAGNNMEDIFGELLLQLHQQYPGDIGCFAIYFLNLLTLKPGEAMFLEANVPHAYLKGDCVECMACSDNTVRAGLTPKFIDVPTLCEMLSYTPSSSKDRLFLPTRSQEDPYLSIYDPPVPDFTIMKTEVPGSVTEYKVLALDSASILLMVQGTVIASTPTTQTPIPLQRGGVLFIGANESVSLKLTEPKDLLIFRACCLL

[2] = target: T1, Mannose-6-phosphate isomerase; assay: inhibitors of human PMI, primary screen, biochemical, fluorescence intensity, coupled assay (AID 1209)
[3] = target: Phosphomannomutase 2 (Homo sapiens, UniProt O15305); assay: Counter screen SAR assay for PMM2 inhibitors via a fluorescence intensity assay. [Related pubchem assays (depositor defined):AID1545, AID1574]
[4] = test system: A-375; assay: MITF: Counter assay: A375 proliferation Measured in Cell-Based System Using Plate Reader - 2084-03_Inhibitor_Dose_DryPowder_Activity. [Related pubchem assays (depositor defined):AID488944]; assay type: functional; settings: Homo sapiens
[5] = test system: A-375; assay: A375 melanoma cell viability reduction, dose response, counter-screen for MITF modulator project, cherry-pick samples, set 2 (AID 540335); assay type: functional, cell-based; settings: Homo sapiens
[6] = mammalian cell cytotoxicity, dose response, cytotoxicity control, plate reader, cherry-pick samples (AID 504397); assay type: functional, cell-based
[7] = target: Peroxisome proliferator-activated receptor gamma/Nuclear receptor coactivator 1 (Homo sapiens, UniProt P37231); assay: (§1) TR-FRET dose response biochemical High Throughput Screening assay for agonists of the steroid receptor coactivator 1 (SRC-1) recruitment by the peroxisome proliferator-activated receptor gamma (PPAR gamma): non-selective agonists. [Related pubchem assays (depositor defined):AID1300, AID1808, AID504735, AID631]; assay type: protein assay
[8] = target: Peroxisome proliferator-activated receptor gamma/Nuclear receptor coactivator 3 (Homo sapiens, UniProt P37231); assay: as §1, with “3 (SRC-3)” for “1 (SRC-1)”, “assays: 1301 (Confirmation screen.), 1048 (Primary screen.)]” for “assays (depositor defined):AID1300, AID1808, AID504735, AID631]”; assay type: functional
[9] = target: Mitogen-activated protein kinase 10 (Homo sapiens, UniProt P53779); assay: Dose response biochemical screening assay for inhibitors of c-Jun N-Terminal Kinase 3 (JNK3). [Related pubchem assays: 746 ]
[10] = target: Peroxisome proliferator-activated receptor gamma/Nuclear receptor coactivator 2 (Homo sapiens, UniProt P37231); assay: TR-FRET dose response biochemical High Throughput Screening assay for agonists of the steroid receptor coactivator 2 (SRC-2) recruitment by the peroxisome proliferator-activated receptor gamma (PPAR gamma): non-selective agonists. [Related pubchem assays: 1297, 1032 ]; assay type: functional
[11] = target: UDP-galactopyranose mutase (Mycobacterium tuberculosis, UniProt P9WIQ1); assay: Inhibitors of Mycobacterium tuberculosis UDP-galactopyranose mutase (UGM) enzyme Measured in Biochemical System Using Plate Reader - 2105-02_Inhibitor_Dose_CherryPick_Activity. [Related pubchem assays (depositor defined):AID504439]
[12] = target: Albumin (Bos taurus, UniProt P02769); assay: Counterscreen for inhibitors of T-cell receptor (TCR)-CD3 interaction: Fluorescence-based biochemical high throughput dose response assay to identify inhibitors of T-cell receptor (TCR)-CD3 interaction using a TAMRA-labeled BSA probe.; assay type: functional
[13] = target: Lysine-specific demethylase 4C (Homo sapiens, UniProt Q9H3R0); assay: GASC-1 (JMJD2C) histone demethylase inhibitors, dose response, biochemical, DELFIA europium, cherry-picked samples (AID 488835); assay type: functional
[14] = target: Voltage-dependent T-type calcium channel subunit alpha-1H (Homo sapiens, UniProt O95180); assay type: functional;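 also: channel activity triggered by adding a high calcium stimulation buffer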
[15] = target: T2, CAAX prenyl protease 2 (Saccharomyces cerevisiae S288c, UniProt Q03530); assay type: biochemical
T2 sequence (Q03530 whole entry): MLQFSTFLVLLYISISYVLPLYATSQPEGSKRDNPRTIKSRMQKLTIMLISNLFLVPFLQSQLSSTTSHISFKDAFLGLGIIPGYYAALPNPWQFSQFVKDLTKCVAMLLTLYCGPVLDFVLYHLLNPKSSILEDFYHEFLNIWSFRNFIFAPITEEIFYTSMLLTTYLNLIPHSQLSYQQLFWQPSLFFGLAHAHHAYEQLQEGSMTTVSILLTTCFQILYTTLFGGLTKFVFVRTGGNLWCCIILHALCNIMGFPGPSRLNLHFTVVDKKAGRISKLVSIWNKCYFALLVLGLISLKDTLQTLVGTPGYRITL

[16] = target: T3, CAAX prenyl protease 2 (Homo sapiens, UniProt Q9Y256); assay: human Rce1 protease inhibitors, dose response, biochemical, yeast membranes, quenched-peptide fluorescence, cherry-pick (AID 588849)
T3 sequence (Q9Y256 whole entry): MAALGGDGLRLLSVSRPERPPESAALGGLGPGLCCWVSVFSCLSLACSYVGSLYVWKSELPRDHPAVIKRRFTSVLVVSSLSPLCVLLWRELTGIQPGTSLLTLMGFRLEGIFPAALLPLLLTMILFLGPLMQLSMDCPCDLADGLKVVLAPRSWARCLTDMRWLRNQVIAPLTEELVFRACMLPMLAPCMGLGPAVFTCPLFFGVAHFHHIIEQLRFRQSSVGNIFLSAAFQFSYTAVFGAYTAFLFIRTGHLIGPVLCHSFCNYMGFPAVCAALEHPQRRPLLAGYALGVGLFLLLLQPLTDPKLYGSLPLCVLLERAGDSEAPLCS

Chain of Lysine-specific demethylase 4C (Q9H3R0 whole entry): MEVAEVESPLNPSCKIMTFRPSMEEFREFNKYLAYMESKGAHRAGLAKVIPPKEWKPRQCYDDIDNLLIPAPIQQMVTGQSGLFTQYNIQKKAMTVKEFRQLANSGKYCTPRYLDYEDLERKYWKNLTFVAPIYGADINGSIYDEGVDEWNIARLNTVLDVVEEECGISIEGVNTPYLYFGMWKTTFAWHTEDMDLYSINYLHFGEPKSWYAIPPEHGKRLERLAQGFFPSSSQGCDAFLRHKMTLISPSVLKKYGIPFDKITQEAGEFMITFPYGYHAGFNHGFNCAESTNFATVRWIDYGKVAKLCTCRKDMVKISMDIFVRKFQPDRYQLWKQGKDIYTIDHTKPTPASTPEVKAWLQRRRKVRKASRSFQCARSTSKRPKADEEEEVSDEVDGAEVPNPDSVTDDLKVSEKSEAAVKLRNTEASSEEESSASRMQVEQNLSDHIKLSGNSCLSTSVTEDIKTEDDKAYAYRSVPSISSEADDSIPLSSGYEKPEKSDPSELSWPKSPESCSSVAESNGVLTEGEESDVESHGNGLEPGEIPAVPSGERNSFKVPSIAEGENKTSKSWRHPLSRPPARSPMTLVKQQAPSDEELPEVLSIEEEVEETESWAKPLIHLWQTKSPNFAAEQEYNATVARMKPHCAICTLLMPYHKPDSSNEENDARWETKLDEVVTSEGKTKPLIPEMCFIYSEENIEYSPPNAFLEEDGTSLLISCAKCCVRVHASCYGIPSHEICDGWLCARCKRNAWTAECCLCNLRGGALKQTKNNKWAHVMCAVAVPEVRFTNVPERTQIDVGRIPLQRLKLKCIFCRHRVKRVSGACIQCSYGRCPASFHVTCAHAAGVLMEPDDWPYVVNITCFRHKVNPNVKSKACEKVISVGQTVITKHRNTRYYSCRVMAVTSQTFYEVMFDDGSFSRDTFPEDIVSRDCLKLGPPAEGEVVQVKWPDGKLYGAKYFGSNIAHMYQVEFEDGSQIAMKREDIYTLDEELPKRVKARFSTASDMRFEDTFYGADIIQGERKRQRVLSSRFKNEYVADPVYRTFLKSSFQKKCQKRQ
Chain of Peroxisome proliferator-activated receptor gamma/Nuclear receptor coactivator 1 (P37231 whole entry): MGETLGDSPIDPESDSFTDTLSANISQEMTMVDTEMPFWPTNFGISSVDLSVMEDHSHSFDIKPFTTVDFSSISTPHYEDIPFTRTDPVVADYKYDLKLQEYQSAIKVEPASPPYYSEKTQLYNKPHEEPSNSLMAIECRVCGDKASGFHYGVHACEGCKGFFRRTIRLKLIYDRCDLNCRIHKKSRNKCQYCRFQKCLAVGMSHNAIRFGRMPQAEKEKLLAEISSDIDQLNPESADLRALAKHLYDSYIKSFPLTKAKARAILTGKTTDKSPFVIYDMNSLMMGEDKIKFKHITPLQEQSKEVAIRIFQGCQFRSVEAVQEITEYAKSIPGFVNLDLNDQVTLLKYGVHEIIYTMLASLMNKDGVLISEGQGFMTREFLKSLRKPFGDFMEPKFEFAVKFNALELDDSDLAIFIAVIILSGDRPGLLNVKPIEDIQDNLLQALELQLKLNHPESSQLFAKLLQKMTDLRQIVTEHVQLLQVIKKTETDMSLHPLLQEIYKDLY
Chain of Peroxisome proliferator-activated receptor gamma/Nuclear receptor coactivator 1 (Q15788 whole entry, further chain): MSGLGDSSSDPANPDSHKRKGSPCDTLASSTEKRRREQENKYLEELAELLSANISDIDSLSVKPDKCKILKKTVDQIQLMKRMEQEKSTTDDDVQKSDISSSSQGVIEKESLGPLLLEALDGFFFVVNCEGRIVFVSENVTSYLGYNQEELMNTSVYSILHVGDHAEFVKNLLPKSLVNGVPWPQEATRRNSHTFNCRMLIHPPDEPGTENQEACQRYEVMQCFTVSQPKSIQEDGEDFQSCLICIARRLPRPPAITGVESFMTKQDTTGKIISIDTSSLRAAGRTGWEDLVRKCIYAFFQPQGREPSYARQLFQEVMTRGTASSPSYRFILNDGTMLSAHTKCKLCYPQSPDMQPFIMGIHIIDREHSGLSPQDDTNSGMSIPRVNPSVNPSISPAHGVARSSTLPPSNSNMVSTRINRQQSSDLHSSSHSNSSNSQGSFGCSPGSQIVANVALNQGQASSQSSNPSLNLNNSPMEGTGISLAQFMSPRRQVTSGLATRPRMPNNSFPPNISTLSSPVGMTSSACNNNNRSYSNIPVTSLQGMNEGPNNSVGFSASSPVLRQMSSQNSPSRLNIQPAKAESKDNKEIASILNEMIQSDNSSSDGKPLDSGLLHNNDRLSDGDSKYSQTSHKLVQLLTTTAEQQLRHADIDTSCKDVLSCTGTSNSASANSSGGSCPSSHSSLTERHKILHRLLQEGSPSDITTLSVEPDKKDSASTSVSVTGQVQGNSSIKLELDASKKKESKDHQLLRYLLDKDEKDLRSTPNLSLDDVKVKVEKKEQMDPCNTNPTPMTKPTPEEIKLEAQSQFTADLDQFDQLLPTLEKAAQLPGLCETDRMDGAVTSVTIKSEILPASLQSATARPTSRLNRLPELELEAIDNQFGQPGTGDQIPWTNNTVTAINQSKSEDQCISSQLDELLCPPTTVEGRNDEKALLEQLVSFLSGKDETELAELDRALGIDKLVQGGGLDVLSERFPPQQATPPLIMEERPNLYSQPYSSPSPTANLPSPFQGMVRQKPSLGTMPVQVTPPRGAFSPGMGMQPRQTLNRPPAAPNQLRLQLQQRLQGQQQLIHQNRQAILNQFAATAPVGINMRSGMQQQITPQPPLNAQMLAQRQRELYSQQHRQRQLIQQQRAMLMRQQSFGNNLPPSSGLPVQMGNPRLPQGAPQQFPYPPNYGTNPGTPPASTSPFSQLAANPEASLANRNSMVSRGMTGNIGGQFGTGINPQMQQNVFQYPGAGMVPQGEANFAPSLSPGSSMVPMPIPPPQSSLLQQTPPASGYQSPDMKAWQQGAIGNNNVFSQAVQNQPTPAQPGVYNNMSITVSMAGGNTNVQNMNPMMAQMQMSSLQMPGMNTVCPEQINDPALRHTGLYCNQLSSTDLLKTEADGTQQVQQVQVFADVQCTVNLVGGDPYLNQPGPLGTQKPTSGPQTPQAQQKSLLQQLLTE
Chain of Peroxisome proliferator-activated receptor gamma/Nuclear receptor coactivator 2 (P37231 whole entry): as the sequence (P37231 whole entry) above
Chain of Peroxisome proliferator-activated receptor gamma/Nuclear receptor coactivator 2 (Q15596 whole entry, further chain): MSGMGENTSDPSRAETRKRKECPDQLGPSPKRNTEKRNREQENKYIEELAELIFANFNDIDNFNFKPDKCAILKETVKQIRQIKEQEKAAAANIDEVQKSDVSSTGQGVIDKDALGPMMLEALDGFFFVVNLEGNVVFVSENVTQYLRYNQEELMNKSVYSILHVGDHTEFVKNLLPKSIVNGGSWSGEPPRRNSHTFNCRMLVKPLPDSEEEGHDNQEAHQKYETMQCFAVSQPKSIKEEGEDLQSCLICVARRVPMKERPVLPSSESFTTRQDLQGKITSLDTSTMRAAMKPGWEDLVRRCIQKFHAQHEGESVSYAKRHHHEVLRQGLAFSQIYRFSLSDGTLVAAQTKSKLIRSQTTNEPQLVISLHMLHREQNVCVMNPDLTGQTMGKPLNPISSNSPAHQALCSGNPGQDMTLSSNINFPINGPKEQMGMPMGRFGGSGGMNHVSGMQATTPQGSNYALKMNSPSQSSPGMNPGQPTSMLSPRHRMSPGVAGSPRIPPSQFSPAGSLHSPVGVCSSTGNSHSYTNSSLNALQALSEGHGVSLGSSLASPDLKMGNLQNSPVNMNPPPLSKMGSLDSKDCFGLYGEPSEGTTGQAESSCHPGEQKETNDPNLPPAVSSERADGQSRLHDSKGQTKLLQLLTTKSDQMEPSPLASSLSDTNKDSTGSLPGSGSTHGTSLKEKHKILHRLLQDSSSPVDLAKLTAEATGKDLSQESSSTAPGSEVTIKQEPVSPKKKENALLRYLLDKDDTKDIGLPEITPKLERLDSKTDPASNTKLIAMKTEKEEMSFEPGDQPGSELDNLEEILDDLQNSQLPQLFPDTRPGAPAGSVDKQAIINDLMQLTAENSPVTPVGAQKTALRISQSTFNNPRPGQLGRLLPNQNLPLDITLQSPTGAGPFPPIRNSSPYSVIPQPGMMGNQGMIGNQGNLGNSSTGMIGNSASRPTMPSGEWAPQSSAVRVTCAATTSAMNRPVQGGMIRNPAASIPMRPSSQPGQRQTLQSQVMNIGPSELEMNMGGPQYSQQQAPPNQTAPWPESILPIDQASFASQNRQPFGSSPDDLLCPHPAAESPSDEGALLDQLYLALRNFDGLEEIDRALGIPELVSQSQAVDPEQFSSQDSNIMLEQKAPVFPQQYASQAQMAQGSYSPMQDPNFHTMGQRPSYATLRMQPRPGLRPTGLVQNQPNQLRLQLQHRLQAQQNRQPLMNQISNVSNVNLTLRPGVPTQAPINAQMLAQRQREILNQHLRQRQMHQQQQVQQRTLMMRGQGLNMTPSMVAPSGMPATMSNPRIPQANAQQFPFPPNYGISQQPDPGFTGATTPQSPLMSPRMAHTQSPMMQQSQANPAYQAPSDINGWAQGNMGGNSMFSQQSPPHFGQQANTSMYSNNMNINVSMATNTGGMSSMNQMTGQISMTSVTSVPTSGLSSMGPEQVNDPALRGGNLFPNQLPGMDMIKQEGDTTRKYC

## Cc1cc2n(n1)SC(Nc1ccc(F)c(Cl)c1)N2 (configuration not stated)
[1]
  IC50: > 50 µM (inactive)
[2]
  IC50: > 50 µM (not active)
[3]
  IC50: > 100 µM (inactive)

## Cc1ccc(SCc2cn3cc(Cl)ccc3n2)cc1
[4]
  AC50: > 35 µM (active)
[5]
  AC50: > 35 µM (active)

## Cc1oc(-c2cccs2)nc1CSCC(=O)N1CCC2(CC1)OCCO2
[6]
  AC50: 256 µM (active)

## CCOC(=O)CCC(NC(=O)c1ccc(NCN2C(=O)c3ccccc3C2=O)cc1)C(=O)OCC (configuration not stated)
[7]
  EC50: > 79.4 µM (inactive)
[8]
  EC50: > 79.4 µM (not active)
[9]
  IC50: 13.1 µM (not active)
[10]
  EC50: > 79.4 µM (not active)

## COc1ccccc1N1C(=O)C2C(C(=O)c3ccccc3)=NN(c3ccc(Br)cc3)C2C1=O (configuration not stated)
[11]
  AC50: 265 µM (active)

## O=C(NNC(=O)C1CCN(S(=O)(=O)c2ccccc2)CC1)c1ccccc1O
[12]
  IC50: > 94.1 µM (inactive)
[13]
  AC50: 6.67 µM (active)

## O=C(Nc1ccc(S(=O)(=O)Nc2ccccc2)cc1)C1COc2ccccc2O1 (configuration not stated)
[14]
  EC50: 3.37 µM (active)
[15]
  AC50: 4.26 µM (active)
[6]
  AC50: 120 µM (active)
[16]
  AC50: 65.5 µM (active)
